In ChEMBL document CHEMBL1153980, “Synthesis and anti-inflammatory activity of the major metabolites of imrecoxib” (Bioorg Med Chem Lett, 2009):

Assays:
[1] = target: T1, Prostaglandin G/H synthase 2 (Mus musculus, UniProt Q05769); experiment: Inhibition of COX2 in mouse peritoneal macrophages
T1 sequence (Q05769 whole entry): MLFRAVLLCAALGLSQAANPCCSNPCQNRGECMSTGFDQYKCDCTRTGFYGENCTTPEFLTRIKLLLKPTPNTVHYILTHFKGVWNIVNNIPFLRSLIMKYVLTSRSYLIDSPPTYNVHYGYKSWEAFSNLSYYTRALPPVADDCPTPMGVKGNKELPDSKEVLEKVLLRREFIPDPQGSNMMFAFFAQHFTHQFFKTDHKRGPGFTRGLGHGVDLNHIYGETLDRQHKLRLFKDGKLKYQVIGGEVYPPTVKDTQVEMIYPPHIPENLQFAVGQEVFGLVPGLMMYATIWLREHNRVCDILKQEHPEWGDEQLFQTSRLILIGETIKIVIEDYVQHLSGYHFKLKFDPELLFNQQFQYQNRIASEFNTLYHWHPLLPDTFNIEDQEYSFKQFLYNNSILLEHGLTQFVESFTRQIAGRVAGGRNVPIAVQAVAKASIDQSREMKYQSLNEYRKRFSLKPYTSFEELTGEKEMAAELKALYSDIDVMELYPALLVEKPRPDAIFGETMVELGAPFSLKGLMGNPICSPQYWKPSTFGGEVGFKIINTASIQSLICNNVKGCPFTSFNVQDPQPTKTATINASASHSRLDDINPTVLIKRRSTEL

[2] = species on record: Mus musculus; experiment: Selectivity index, ratio of IC50 for COX1 to IC50 for COX2 in mouse peritoneal macrophages
[3] = target: Prostaglandin G/H synthase 1 (Mus musculus, UniProt P22437); experiment: Inhibition of calcimycin-induced COX1 activity
[4] = test system: Rattus norvegicus; experiment: Antiinflammatory activity in rat assessed as inhibition of carrageenan induced paw edema at 10 mg/kg after 1 hr relative to control; type: functional
[5] = test system: Rattus norvegicus; experiment: Antiinflammatory activity in rat assessed as inhibition of carrageenan induced paw edema at 10 mg/kg after 2 hrs relative to control; type: functional
[6] = test system: Rattus norvegicus; experiment: Antiinflammatory activity in rat assessed as inhibition of carrageenan induced paw edema at 10 mg/kg after 3 hrs relative to control; type: functional
[7] = test system: Rattus norvegicus; experiment: Antiinflammatory activity in rat assessed as inhibition of carrageenan induced paw edema at 10 mg/kg after 4 hrs relative to control; type: functional
[8] = target: T2, Prostaglandin G/H synthase 1 (Mus musculus, UniProt P22437); experiment: Inhibition of COX1 in mouse peritoneal macrophages
T2 sequence (P22437 whole entry): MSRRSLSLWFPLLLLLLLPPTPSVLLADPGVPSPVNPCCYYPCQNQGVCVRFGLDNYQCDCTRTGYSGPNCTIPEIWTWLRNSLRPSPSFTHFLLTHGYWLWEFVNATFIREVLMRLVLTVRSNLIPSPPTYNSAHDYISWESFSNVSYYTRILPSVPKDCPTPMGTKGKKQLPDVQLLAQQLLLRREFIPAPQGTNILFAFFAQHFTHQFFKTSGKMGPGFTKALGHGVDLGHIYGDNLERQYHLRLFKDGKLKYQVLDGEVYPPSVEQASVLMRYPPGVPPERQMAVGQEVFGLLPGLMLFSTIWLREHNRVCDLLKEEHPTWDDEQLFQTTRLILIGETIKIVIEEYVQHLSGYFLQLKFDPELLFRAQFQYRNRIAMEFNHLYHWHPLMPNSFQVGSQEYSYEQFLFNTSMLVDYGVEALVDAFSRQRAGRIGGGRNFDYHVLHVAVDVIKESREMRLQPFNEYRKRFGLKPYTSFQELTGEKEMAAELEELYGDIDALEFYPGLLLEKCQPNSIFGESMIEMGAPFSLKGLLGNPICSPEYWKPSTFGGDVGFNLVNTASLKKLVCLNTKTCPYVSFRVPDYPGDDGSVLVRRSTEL

IC50 [1] [nM] | Ratio IC50 [2] | IC50 [3] [nM] | IC50 [8] [nM] | SMILES | inhibition in vivo at 10 mg/kg [4] [%] | inhibition in vivo at 10 mg/kg [5] [%] | inhibition in vivo at 10 mg/kg [6] [%] | inhibition in vivo at 10 mg/kg [7] [%]
410 | 6.8 | 2780 | – | CCCN1CC(c2ccc(S(C)(=O)=O)cc2)=C(c2ccc(C(=O)O)cc2)C1=O | 45.4 | 51.9 | 55.5 | 65.9
– | – | – | – | Cc1ccc(-c2cc(C(F)(F)F)nn2-c2ccc(S(N)(=O)=O)cc2)cc1 [CELECOXIB] | 23.5 | 36.6 | 44.7 | 49.3
18 | 6.4 | – | 115 | CCCN1CC(c2ccc(S(C)(=O)=O)cc2)=C(c2ccc(C)cc2)C1=O [IMRECOXIB] | 31.3 | 39.5 | 50.4 | 50.4
14 | 6.2 | – | 87 | CCCN1CC(c2ccc(S(C)(=O)=O)cc2)=C(c2ccc(CO)cc2)C1=O | 26.5 | 46 | 56.1 | 63.9
